Experimental data from the supplement of paper PMC4977894.
± gives the standard deviation of the averaged measurements.

Assays:
[1] = test system: Homo sapiens (human subject panel, olfactory perception); assay: perceived odor familiarity rating (rating 0-100); higher = more familiar
Procedure: (§1)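 Human olfactory psychophysics. 55 healthy subjects (after excluding 6 low performers) sniffed 1 mL of each odorant diluted in paraffin oil (vials, two dilutions per molecule, 20 molecules presented twice). Each subject rated intensity, pleasantness and familiarity on a 0-100 slider, starting at 50 and required to move. Ratings were given only when the subject reported detecting a smell; per-subject ratings are averaged over subjects.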

[2] = test system: Homo sapiens (human subject panel, olfactory perception); assay: perceived odor pleasantness rating (rating 0-100); higher = more pleasant
Procedure: as §1

[3] = test system: Homo sapiens (human subject panel, olfactory perception); assay: perceived odor intensity rating (rating 0-100); higher = stronger perceived smell
Procedure: as §1

[4] = odor dilution in paraffin oil: 1/10
[5] = odor dilution in paraffin oil: 1/1,000
[6] = odor dilution in paraffin oil: 1/100,000
[7] = odor dilution in paraffin oil: 1/10,000,000

Row | SMILES | perceived odor familiarity rating [1, 4] | perceived odor familiarity rating [1, 5] | perceived odor pleasantness rating [2, 4] | perceived odor pleasantness rating [2, 5] | perceived odor intensity rating [3, 4] | perceived odor intensity rating [3, 5] | perceived odor familiarity rating [1, 6] | perceived odor pleasantness rating [2, 6] | perceived odor intensity rating [3, 6] | perceived odor familiarity rating [1, 7] | perceived odor pleasantness rating [2, 7] | perceived odor intensity rating [3, 7]
1 | CCCCC(C)CCC(=O)O (racemic) [(±)-4-Methyloctanoic acid] | 41.7 ± 32 | 48.6 ± 30 | 27.4 ± 25 | 29 ± 20 | 72.5 ± 25 | 67.2 ± 25 | – | – | – | – | – | –
2 | NC(Cc1ccccc1)C(=O)O (racemic) [DL-Phenylalanine (replicate)] | 48.2 ± 29 | 39.2 ± 26 | 44.6 ± 25 | 50.4 ± 23 | 66.3 ± 24 | 39.2 ± 29 | – | – | – | – | – | –
3 | NC(Cc1ccccc1)C(=O)O (racemic) [DL-Phenylalanine] | 43.4 ± 31 | 41.9 ± 29 | 38.2 ± 26 | 51.4 ± 27 | 70 ± 24 | 35.2 ± 29 | – | – | – | – | – | –
4 | O=C(O)C(O)C(O)C(=O)O (racemic) [DL-Tartaric acid] | 40.5 ± 25 | 26.4 ± 28 | 48.3 ± 20 | 52.1 ± 19 | 30.6 ± 30 | 26.4 ± 30 | – | – | – | – | – | –
5 | C=C(C)C1CC=C(C)C(=O)C1 (single isomer, unassigned; (-)) [(-)-Carvone] | 81.2 ± 24 | 77.9 ± 25 | 78.6 ± 16 | 78.2 ± 19 | 84.3 ± 15 | 72.6 ± 20 | – | – | – | – | – | –
6 | C=C1CCC2CC1C2(C)C (single isomer, unassigned; (-)) [(-)-beta-Pinene] | 62.1 ± 31 | 47.8 ± 29 | 50.5 ± 30 | 54.8 ± 22 | 74.2 ± 22 | 32.2 ± 31 | – | – | – | – | – | –
7 | CC(C)=CCCC(C)CCO (single isomer, unassigned; (-)) [(-)-citronellol] | – | 57.9 ± 31 | – | 53.5 ± 30 | – | 71.5 ± 27 | 49.6 ± 28 | 61.3 ± 22 | 41.6 ± 33 | – | – | –
8 | COc1cccc(OC)c1 [1,3-Dimethoxybenzene] | – | 54.1 ± 26 | – | 49.7 ± 26 | – | 68.4 ± 22 | 33.2 ± 27 | 45.8 ± 28 | 32.6 ± 30 | – | – | –
9 | O=C(Cc1ccccc1)Cc1ccccc1 [1,3-Diphenyl-2-propanone] | – | 49.7 ± 34 | – | 32.7 ± 29 | – | 78.1 ± 20 | 48.1 ± 30 | 43 ± 27 | 35.4 ± 28 | – | – | –
10 | SCCCCCCS [1,6-Hexanedithiol] | – | – | – | – | – | – | 51.5 ± 33 | 24.9 ± 26 | 74.8 ± 24 | 36.8 ± 29 | 40.1 ± 25 | 33.8 ± 34
11 | CC12CCC(CC1)C(C)(C)O2 [1,8-cineole] | – | 69.7 ± 25 | – | 62.5 ± 24 | – | 70.1 ± 24 | 53.5 ± 30 | 61.5 ± 25 | 45.5 ± 29 | – | – | –
12 | c1coc(Cn2cccc2)c1 [1-Furfurylpyrrole] | – | 40.7 ± 32 | – | 28.7 ± 24 | – | 76.3 ± 22 | 34.3 ± 25 | 46.8 ± 19 | 30.9 ± 29 | – | – | –
13 | C=CC(O)CCCC (stereo unspecified) [1-Hepten-3-ol] | – | 41 ± 31 | – | 24.3 ± 25 | – | 83.2 ± 18 | 44.4 ± 32 | 37.3 ± 26 | 53.7 ± 31 | – | – | –
14 | CCCCCCCCCCCCCCCCO [1-Hexadecanol] | 40.1 ± 30 | 42.6 ± 27 | 43 ± 24 | 35.4 ± 24 | 43.5 ± 31 | 35.8 ± 26 | – | – | – | – | – | –
15 | COc1cc(C)ccc1C(C)C [1-Methyl-3-methoxy-4-isopropylbenzene] | – | 51.6 ± 30 | – | 43.8 ± 21 | – | 45.5 ± 28 | 42.9 ± 35 | 47.5 ± 18 | 23.1 ± 25 | – | – | –
16 | C=CC(O)CCCCC (stereo unspecified) [1-Octen-3-ol] | – | 45.4 ± 32 | – | 40.3 ± 27 | – | 66.5 ± 26 | 39.4 ± 27 | 42.2 ± 20 | 37.7 ± 30 | – | – | –
17 | C=CC(CCCCC)OC(C)=O (stereo unspecified) [1-Octen-3-yl acetate] | – | 35.2 ± 29 | – | 34.1 ± 22 | – | 55.9 ± 29 | 32.8 ± 27 | 42.9 ± 24 | 26.4 ± 26 | – | – | –
18 | C=CCCCCCC [1-Octene] | – | 42.9 ± 28 | – | 39.1 ± 24 | – | 39.7 ± 29 | 45.6 ± 31 | 48 ± 26 | 33.6 ± 30 | – | – | –
19 | C=CC(O)CC (stereo unspecified) [1-Penten-3-ol] | – | 43 ± 35 | – | 40.7 ± 29 | – | 53 ± 32 | 34.7 ± 24 | 43.3 ± 22 | 31.3 ± 32 | – | – | –
20 | CCC(O)c1ccccc1 (stereo unspecified) [1-Phenyl-1-propanol] | – | 39.2 ± 31 | – | 54 ± 20 | – | 36.6 ± 32 | 25.5 ± 26 | 48.9 ± 19 | 15.2 ± 22 | – | – | –
21 | CCCCCCCCCCCO [1-undecanol] | 51 ± 32 | 37.1 ± 30 | 41 ± 28 | 41.9 ± 28 | 74.9 ± 24 | 42.8 ± 32 | – | – | – | – | – | –
22 | c1coc(CSCc2ccco2)c1 [2,2'-(Thiodimethylene)difuran] | – | 44.9 ± 32 | – | 20.1 ± 23 | – | 77.1 ± 24 | 52 ± 32 | 26.9 ± 24 | 73.5 ± 22 | – | – | –
23 | Cc1nc(C)c(C)nc1C [2,3,5,6-Tetramethylpyrazine] | 41.3 ± 31 | 35.7 ± 28 | 28.7 ± 23 | 49.4 ± 22 | 79.1 ± 18 | 25.8 ± 25 | – | – | – | – | – | –
24 | CCc1nccnc1CC [2,3-Diethylpyrazine] | – | – | – | – | – | – | 55 ± 28 | 34.3 ± 24 | 70.7 ± 26 | 44.9 ± 28 | 40.3 ± 18 | 30.4 ± 29
25 | CC(=O)C(C)=O [2,3-butanedione] | – | 49.3 ± 34 | – | 24.5 ± 19 | – | 81.7 ± 19 | 50 ± 29 | 35.9 ± 22 | 55.8 ± 28 | – | – | –
26 | Cc1nc(C)c(C)s1 [2,4,5-Trimethylthiazole] | – | – | – | – | – | – | 48.4 ± 31 | 33.8 ± 26 | 67.9 ± 26 | 46.4 ± 31 | 44.2 ± 27 | 35.2 ± 31
